Patent US20230165843A1, “USE AND PHARMACEUTICAL COMPOSITION OF PHENYLISOXAZOLYL METHYLENE-NAPHTHALENE-ETHER DERIVATIVES” (priority 2019, published 2023)

Legend:
HBV (D type) = experiment: PHH (Primary Human Hepatocyte) Assay, HBV infection; type: cell-based, hepatitis B virus; details: PHH cells infected with HBV (D type); for inhibition of HBV RNA: culture supernatant day 9, RT-qPCR, FIG. 3; for inhibition of extracellular HBV DNA: culture supernatant day 9, qPCR, FIG. 1; for inhibition of HBsAg: culture supernatant day 9, FIG. 2
Description: PHH (Primary Human Hepatocyte) Assay: Cell Line and Compound Treatment
The PHH cells were seeded into the 48-well plates at the density of 1.32×10^5 cells/well. The PHH cells seeding date was defined as day 0. The PHH cells were infected with HBV (D type) at 1600 GE/cell on day 1. The culture medium containing compounds was refreshed on day 2, 4, 6 and day 8. On day 9, the cells were treated with CCK8 and culture supernatant and cells were collected.
FXR Compounds were tested at 10000.0, 3000.0, 1000.0, 300.0, 100.0, 30.0, and 10.0 nM, and ETV was tested at 0.2000, 0.0667, 0.0222, 0.0074, 0.0025, 0.0008, and 0.0003 nM. 1% DMSO was used as non-treatment control. The supernatants on day 9 were collected, and analyzed for HBV DNA by qPCR, HBV RNA by RT-qPCR, HBsAg and HBeA by ELISA.
DNA in the culture supernatants was isolated with the QIAamp 96 DNA Blood Kit according to the manual and quantified by the qPCR. 80 μl of the culture supernatants sample was used to extract DNA. The elution volume was 120 μl. The PCR mix (8 μl/well) and the samples (2 μl/well) or plasmid standards (2 μl/well) were added to the 384-well optical reaction plate and performed using the following program: 95C for 10 min, then cycling at 95° C. 15 sec, 60° C. 1 min for 40 cycles.
RNA in the culture supernatants was isolated with the PureLink™ Pro 96 Viral RNA Kit according to the manual. 35 μl of the culture supernatants sample was used to extract RNA. The elution volume was 100 μl. HBV RNA was quantified by RT-qPCR.
For HepG2-NTCP Assay, HBsAg and HBeAg in the samples harvested on day 9 were measured by the HBsAg ELISA kit (Autobio) and HBeAg ELISA kit (Autobio) according to the manual. For PHH assay, Chemiluminescence Apparatu was used to measure HBsAg according to the Antu HBsAg ELISA kit manual.
% HBV DNA inhibition=(1−HBV DNA copy number of test sample/avg. HBV DNA copy number of 1% DMSO control)×100%
% HBV RNA inhibition=(1−HBV RNA copy number of test sample/avg. HBV RNA copy number of 1% DMSO control)×100%
% HBsAg inhibition=(1−HBsAg quantity of sample/HBsAg quantity of 1% DMSO control)×100%
The EC50 and CC50 values were determined by dose-response curves fitted by GraphPad Prism using “log (agonist) vs. response-variable slope”.

HBV (rAAV8-1.3HBV) = experiment: AAV/HBV Mouse Model; type: in vivo, mice
Text: AAV/HBV Mouse Model and Compound Treatment
Male C57BL′6 mice of 5-week old (obtained from Shanghai Jihui Laboratory Animal Care Co., Ltd) were given rAAV8-1.3HBV (1×1011 v.g.) via tail vein to establish infection on Day −28. After 14 days, 21 days, and on Day −4, blood was drawn from submandibular vein to determine the level of HBV DNA, and HBsAg. On Day-4, 40 mice were chosen based on HBV DNA, and HBsAg results, and were randomly assigned to 5 groups. After the mice were infected with HBV virus for 28 days, treatment was given orally once per day, for 4 weeks. Group 1 was given vehicle (0.5% CMC-Na, 10 ml/kg), Group 2 was given positive control ETV (0.1 mg/kg). Groups 3, 4, and 5 were given Compound 33 at 10 mg/kg, 30 mg/kg, and 60 mg/kg, respectively. Blood was drawn from submandibular vein every week to determine the concentration of HBV DNA, HBV RNA, and HBsAg. On Day 28, blood was taken from the heart.
HBV DNA determination by qPCR. DNA in the mice plasma was isolated with the QIAamp 96 DNA Blood Kit according to the manual and quantified by the qPCR, and performed using the following program: 95C for 10 min, then cycling at […] 15 sec, 60° C. 1 min for 40 cycles.
HBV RNA determination by qPCR. RNA in the mice plasma was isolated with the PureLink™ Pro 96 Viral RNA/DNA Kit according to the manual. 20 μl of the plasma was used to extract RNA
HBsAg determination by ELISA. HBsAg in the samples was measured by the HBsAg ELISA kit (Autobio) according to the manual. Briefly, after the plasma was diluted 1200× in a coated plate, and incubate with the enzyme conjugated ([…], 60 min), and the plate was washed 5 time. Substrate was added, and it was kept from light at room temperature for 10 min and intensity was measured by a plated reader.
Average±Standard deviation was calculated for each group, and analyzed with Student's t-test.

[1] = positive control 0.1 mg/kg orally once per day, 4 weeks

SMILES	inhibition of HBV RNA (HBV (D type))	inhibition of extracellular HBV DNA (HBV (D type))	inhibition of HBsAg (HBV (D type))	effect on HBV RNA as compared to the vehicle group (HBV (rAAV8-1.3HBV); [1])	effect on HBsAg as compared to the vehicle group (HBV (rAAV8-1.3HBV); [1])	HBsAg, lowered as compared to the vehicle group (HBV (rAAV8-1.3HBV); high dose group 60 mg/kg orally once per day, 28 days, FIG. 6)	HBV RNA, lower than the vehicle group (HBV (rAAV8-1.3HBV); high dose group 60 mg/kg orally once per day, 28 days, significantly lower than vehicle (p<0.01), FIG. 5)	HBV DNA, lower than the vehicle group (HBV (rAAV8-1.3HBV); high dose group 60 mg/kg orally once per day, 28 days, significantly lower than vehicle (p<0.05), FIG. 4)
Cc1nc(Oc2cccc3cc(OCc4c(-c5c(Cl)cccc5Cl)noc4C4CC4)ccc23)ccc1C(=O)O [Compound 27, 6-((6-((5-cyclopropyl-3-(2,6-dichlorophenyl)isoxazol-4-yl)methoxy)naphthalen-1-yl)oxy)-2-methylnicotinic acid]	dose-dependent inhibition	dose-dependent inhibition	dose-dependent inhibition	–	–	–	–	–
O=C(O)c1ccc(Oc2cccc3cc(OCc4c(-c5c(Cl)cccc5Cl)noc4C4CC4)ccc23)nc1 [Compound 22, 6-((6-((5-cyclopropyl-3-(2,6-dichlorophenyl)isoxazol-4-yl)methoxy)naphthalen-1-yl)oxy)nicotinic acid]	dose-dependent inhibition	dose-dependent inhibition	dose-dependent inhibition	–	–	–	–	–
C=C1[C@H](CO)[C@@H](O)C[C@@H]1n1cnc2c(=O)[nH]c(N)nc21 [ETV, entecavir, reference compound]	no significant inhibition	significant inhibition	no significant inhibition	no significant effect	no significant effect	–	–	–
O=C(O)c1ccc(Oc2ccc3cc(OCc4c(-c5c(Cl)cccc5Cl)noc4C4CC4)ccc3c2)nc1 [Compound 1, 6-((6-((5-cyclopropyl-3-(2,6-dichlorophenyl)isoxazol-4-yl)methoxy)naphthalen-2-yl)oxy)nicotinic acid]	dose-dependent inhibition	dose-dependent inhibition	dose-dependent inhibition	–	–	–	–	–
O=C([O-])c1ccc(Oc2ccc3cc(OCc4c(-c5c(Cl)cccc5Cl)noc4C4CC4)ccc3c2)nc1.[Na+] [Compound 33, Sodium 6-((6-((5-cyclopropyl-3-(2,6-dichlorophenyl)isoxazol-4-yl)methoxy)naphthalen-2-yl)oxy)nicotinate]	–	–	–	–	–	0.38 log 10 [IU/ml]	0.60-0.66 log 10[RNA copy/uL]	0.77-1.12 log 10[DNA copy/uL]
